Assay results from PMC8989888, “Development of optimized drug-like small molecule inhibitors of the SARS-CoV-2 3CL protease for treatment of COVID-19” (Nature Communications, 2022).
“And” between values parts separate entries of the source, which are not always exact repeats. Equal entries are not always repeated.

How the values were obtained:
SARS-CoV-2 3CL protease [1] = molecular target: T1, SARS-CoV-2 3CL protease (Severe acute respiratory syndrome coronavirus 2, UniProt P0DTD1); assay: biochemical; details: for Normalized SARS-CoV-2 3CL protease activity: 0.2 µM protease with 50 µM tested compound; for Normalized SARS-CoV-2 3CL protease activity / % SARS-CoV-2 3CL activity: replicates; for IC50 / % SARS-CoV-2 3CL activity: 20 nM protease; for IC50: read-out: SARS-CoV-2 3CLpro IC50
SARS-CoV-2 3CL protease [2] = molecular target: T1, SARS-CoV-2 3CL protease; assay: cell-based
SARS-CoV-2 3CL protease [3] = molecular target: T1, SARS-CoV-2 3CL protease; assay: biochemical
SARS-CoV-2 3CL protease [4] = molecular target: T1, SARS-CoV-2 3CL protease; assay type: binding
SARS-CoV-2 = assay: microbe, parasite or virus in culture; assay type: cell-based; details: Severe acute respiratory syndrome coronavirus 2, Vero C1008, read-out: SARS-CoV-2 Vero E6 EC50
[5] = tested on: Influenza A H1N1 (strain: California/07/2009); assay: microbe, parasite or virus in culture; assay type: cell-based; details: Influenza A virus, H1N1, MDCK, read-out: Influenza A (H1N1) MDCK EC50

Compound: CC(=O)N1CCc2cc(C(=O)Oc3cncc(Cl)c3)ccc21 [Z21]
- Normalized SARS-CoV-2 3CL protease activity (SARS-CoV-2 3CL protease [1]): 0.2321 and 0.2984
- Absorbance (crystal violet), SARS-CoV-2 3CLpro (SARS-CoV-2 3CL protease [2]): 0.1721 and 0.1614

Compound: O=C(N[C@@H](CC1CCCCC1)C(=O)N[C@@H](C[C@@H]1CCNC1=O)C(O)S(=O)(=O)O)OCc1ccccc1 (stereo partly drawn) [SL-4-241]
- IC50 (SARS-CoV-2 3CL protease [1]): 75 nM
- normalized activity, dose-response curve (Figure S16) (SARS-CoV-2 3CL protease [1]; Concentration of inhibitor (nM) 0.19382): 94.2892 and 94.3168
- normalized activity, dose-response curve (Figure S16) (SARS-CoV-2 3CL protease [1]; Concentration of inhibitor (nM) 0.49485): 87.5254 and 99.9152
- normalized activity, dose-response curve (Figure S16) (SARS-CoV-2 3CL protease [1]; Concentration of inhibitor (nM) 0.79588): 89.3075 and 94.6561
- normalized activity, dose-response curve (Figure S16) (SARS-CoV-2 3CL protease [1]; Concentration of inhibitor (nM) 1.09691): 90.077 and 87.1492
- normalized activity, dose-response curve (Figure S16) (SARS-CoV-2 3CL protease [1]; Concentration of inhibitor (nM) 1.39794): 78.3315 and 75.5284
- normalized activity, dose-response curve (Figure S16) (SARS-CoV-2 3CL protease [1]; Concentration of inhibitor (nM) 1.69897): 69.502 and 62.8473
- normalized activity, dose-response curve (Figure S16) (SARS-CoV-2 3CL protease [1]; Concentration of inhibitor (nM) 2): 41.1102 and 41.9808
- normalized activity, dose-response curve (Figure S16) (SARS-CoV-2 3CL protease [1]; Concentration of inhibitor (nM) 2.30103): 10.8147 and 10.0871
- normalized activity, dose-response curve (Figure S16) (SARS-CoV-2 3CL protease [1]; Concentration of inhibitor (nM) 2.60206): 3.241 and 2.3258
- normalized activity, dose-response curve (Figure S16) (SARS-CoV-2 3CL protease [1]; Concentration of inhibitor (nM) -0.10721): 98.5824 and 101.484
- normalized activity, dose-response curve (Figure S16) (SARS-CoV-2 3CL protease [1]; Concentration of inhibitor (nM) -0.40824): 100
- observed inactivation rate vs compound concentration (Figure S19, replicate values) (SARS-CoV-2 3CL protease [3]): 0.0986 and 0.0638 and 0.0852 and 0.1375 and 0.0874 and 0.0292 and 0.1342 and 0.0676 and 0.0349 and 0.0089 and 0.0058 and 0.057 and 0.065 and 0.0135 and 0.036 and 0.0158 and 0.0274 and 0.003 and 0.0091 and 0.01 and -0.00355
- kinact/KI (SARS-CoV-2 3CL protease [3]; read-out: SARS-CoV-2 3CLpro kinact/KI): 23300 M⁻¹ s⁻¹
- binding to 3CL protease by mass spectrometry (in words) (SARS-CoV-2 3CL protease [4]): blocked the covalent binding of 10 equivalents of compound 4
- EC50 (SARS-CoV-2): 17000 nM

Compound: Cn1ncc(C(=O)Oc2cncc(Cl)c2)c1-n1cccc1 [Z26]
- Normalized SARS-CoV-2 3CL protease activity (SARS-CoV-2 3CL protease [1]): 0.2302 and 0.2702 and 0.2695
- Absorbance (crystal violet), SARS-CoV-2 3CLpro (SARS-CoV-2 3CL protease [2]): 0.1558 and 0.1505

Compound: NC(=O)c1ncn([C@@H]2O[C@H](CO)[C@@H](O)[C@H]2O)n1 [Ribavirin, reference compound]
- EC50 [5]: 3200 nM

Compound: CN(C)S(=O)(=O)c1ccc(C(=O)Oc2cc(Cl)c[nH]c2=O)cc1 [Z97]
- Normalized SARS-CoV-2 3CL protease activity (SARS-CoV-2 3CL protease [1]): 0.9508 and 0.9056 and 0.9639
- Absorbance (crystal violet), SARS-CoV-2 3CLpro (SARS-CoV-2 3CL protease [2]): 0.1516 and 0.1477

Compound: O=C(Oc1cncc(Br)c1)c1cc2c([nH]c1=O)CCCC2 [Z61]
- Normalized SARS-CoV-2 3CL protease activity (SARS-CoV-2 3CL protease [1]): 0.4525 and 0.1738 and 0.3423
- Absorbance (crystal violet), SARS-CoV-2 3CLpro (SARS-CoV-2 3CL protease [2]): 0.1155 and 0.1264

Compound: N#CCc1cccc(C(=O)Oc2cncc(Cl)c2)c1 [Z50]
- Normalized SARS-CoV-2 3CL protease activity (SARS-CoV-2 3CL protease [1]): 0.05574 and 0.08721 and 0.4348
- Absorbance (crystal violet), SARS-CoV-2 3CLpro (SARS-CoV-2 3CL protease [2]): 0.1475 and 0.1394

Compound: Cc1ncsc1C(=O)Oc1cncc(Cl)c1 [Z91]
- % SARS-CoV-2 3CL activity (SARS-CoV-2 3CL protease [1]; log10[nM] 0.19382): 84.3886% and 89.3518%
- % SARS-CoV-2 3CL activity (SARS-CoV-2 3CL protease [1]; log10[nM] 0.49485): 71.2882% and 83.5648%
- % SARS-CoV-2 3CL activity (SARS-CoV-2 3CL protease [1]; log10[nM] 0.79588): 67.1397% and 68.9815%
- % SARS-CoV-2 3CL activity (SARS-CoV-2 3CL protease [1]; log10[nM] 1.09691): 60.4804% and 65.625%
- % SARS-CoV-2 3CL activity (SARS-CoV-2 3CL protease [1]; log10[nM] 1.39794): 57.3144% and 59.9537%
- % SARS-CoV-2 3CL activity (SARS-CoV-2 3CL protease [1]; log10[nM] 1.69897): 31.5502% and 53.125%
- % SARS-CoV-2 3CL activity (SARS-CoV-2 3CL protease [1]; log10[nM] 2): 18.6681% and 32.7546%
- % SARS-CoV-2 3CL activity (SARS-CoV-2 3CL protease [1]; log10[nM] 2.30103): 6.9869% and 23.0324%
- % SARS-CoV-2 3CL activity (SARS-CoV-2 3CL protease [1]; log10[nM] 2.60206): 2.62% and 4.745%
- % SARS-CoV-2 3CL activity (SARS-CoV-2 3CL protease [1]; log10[nM] 2.90309): 0%
- % SARS-CoV-2 3CL activity (SARS-CoV-2 3CL protease [1]; log10[nM] -0.10721): 87.0087% and 88.8889%
- % SARS-CoV-2 3CL activity (SARS-CoV-2 3CL protease [1]; log10[nM] -0.40824): 100%
- IC50 (SARS-CoV-2 3CL protease [1]): 31 nM
- Normalized SARS-CoV-2 3CL protease activity (SARS-CoV-2 3CL protease [1]): 0.02131 and 0.02295 and 0.01967
- Absorbance (crystal violet), SARS-CoV-2 3CLpro (SARS-CoV-2 3CL protease [2]): 0.1428 and 0.134
